pIC50: −log10 of the molar value. Counter-ions that a name gives are not always drawn. Like-named read-outs stand apart in the source and are kept apart here.
Molecular target: T1, V1 receptor (Rattus norvegicus, UniProt P30560)
T1 construct: Using rat liver plasma membrane preparations; from tissue; host or cells: rat liver plasma membranes
Assay: V1 receptor binding assay (inhibition of [3H]-Arg-vasopressin binding to rat liver plasma membrane)
Procedure: Using rat liver plasma membrane preparations prepared according to Ichihara's method [cf: Akira Ichihara, J. Bio. […] After incubation, the mixture is filtered three times using the glass filter (GF/F) so as to separate the membrane preparation combined with vasopressin and then washed with the buffer (5 ml). This glass filter is taken out and mixed with liquid scintillation cocktail. The amount of [H]^3 -vasopressin combined with the membrane is measured by liquid scintillation counter and the rate of the inhibitory effect of the test compound is estimated according to the following equation. [formula]

[1] = rat liver plasma membrane, [H]^3-Arg-vasopressin 2×10^-10 M, 37° C., 10 minutes, pH 8.0, read-out: IC50

T1 sequence (P30560 whole entry): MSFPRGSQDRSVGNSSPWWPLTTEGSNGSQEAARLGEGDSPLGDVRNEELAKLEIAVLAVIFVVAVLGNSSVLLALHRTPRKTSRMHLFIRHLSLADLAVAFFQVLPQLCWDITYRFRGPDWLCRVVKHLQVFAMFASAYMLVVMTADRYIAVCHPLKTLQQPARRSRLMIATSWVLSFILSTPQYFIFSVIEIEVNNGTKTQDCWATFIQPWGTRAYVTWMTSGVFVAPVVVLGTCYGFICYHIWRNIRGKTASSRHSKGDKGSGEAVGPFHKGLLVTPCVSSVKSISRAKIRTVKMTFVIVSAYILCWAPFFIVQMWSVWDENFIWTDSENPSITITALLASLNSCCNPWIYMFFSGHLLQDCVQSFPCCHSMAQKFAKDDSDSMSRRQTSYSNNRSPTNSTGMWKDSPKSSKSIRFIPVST

SMILES | pIC50 [1] | pIC50
O=C(c1ccc(OCCCCCN2CCC3(CCCCC3)CC2)cc1)N1CCC(N2C(=O)CCc3ccccc32)CC1 [Test Compound 1, 1-[1-{4-[5-(Cyclohexanespiro-4'-(1-piperidinyl))pentyloxy]benzoyl}-4-piperidinyl]-3,4-dihydrocarbostyril] | 7.33 | –
O=C(c1ccc(OCCCCCNC23CC4CC(CC(C4)C2)C3)cc1)N1CCC(N2C(=O)CCc3ccccc32)CC1 [Test Compound 2, 1-{1-[4-(5-Tricyclo[3.3.1.1^3.7]decanylaminopentyloxy)benzoyl]-4-piperidinyl}-3,4-dihydrocarbostyril hydrochloride] | 7.57 | –
O=C(c1ccc(OCCCCCNCC23CC4CC(CC(C4)C2)C3)cc1)N1CCC(N2C(=O)CCc3ccccc32)CC1 [Test Compound 3, 1-{1-[4-(5-Tricyclo[3.3.1.1^3.7]decanylmethylaminopentyloxy)benzoyl]-4-piperidinyl}-3,4-dihydrocarbostyri] | 7.00 | –
O=C(c1ccc(OCCCCCNCC(F)(F)F)cc1)N1CCC(N2C(=O)CCc3ccccc32)CC1 [Test Compound 4, 1-[1-{4-[5-(2,2,2-Trifluoroethylamino)-pentyloxy)benzoyl}-4-piperidinyl}-3,4-dihydrocarbostyril] | 6.49 | –
CCOC(=O)CC(=O)OCCN(C)CCCCCOc1ccc(C(=O)N2CCC(N3C(=O)CCc4ccccc43)CC2)cc1 [Test Compound 5, 1-[1-{4-[5-[N-Methyl-N-(2-ethoxycarbonylacetyloxyethyl)amino}pentyloxy]benzoyl}-4-piperidinyl]-3,4-dihydrocarbostyril] | 6.96 | –
C=CCNCC(O)CCCCOc1ccc(C(=O)N2CCC(N3C(=O)CCc4ccccc43)CC2)cc1 (stereo not drawn) [Test Compound 6, 1-{1-[4-(5-Hydroxy-6-allylaminohexyloxy)benzoyl]-4-piperidinyl}-3,4-dihydrocarbostyril] | 6.85 | –
NC1CCN(CCCCCOc2ccc(C(=O)N3CCC(N4C(=O)CCc5ccccc54)CC3)cc2)CC1 [Test Compound 7, 1-[1-{4-[5-(4-Amino-1-piperidinyl)pentyloxy)-benzoyl-}-4-piperidinyl]-3,4-dihydrocarbostyril] | 7.55 | –
O=C(c1ccc(OCCCCCN2CCC(NC(=O)C(F)(F)F)CC2)cc1)N1CCC(N2C(=O)CCc3ccccc32)CC1 [Test Compound 8, 1-[1-{4-[5-(4-Trifluoroacetylamino-1-piperidinyl)pentyloxy]benzoyl}-4-piperidinyl]-3,4-dihydrocarbostyril] | 7.20 | –
CC(=O)NC1CCN(CCCCCOc2ccc(C(=O)N3CCC(N4C(=O)CCc5ccccc54)CC3)cc2)CC1 [Test Compound 9, 1-[1-{4-[5-(4-Acetylamino-1-piperidinyl)-pentyloxy)benzoyl}-4-piperidinyl]-3,4-dihydrocarbostyril] | 7.44 | –
CCN(CC)CC(CCCCOc1ccc(C(=O)N2CCC(N3C(=O)CCc4ccccc43)CC2)cc1)OC(=O)NC (stereo not drawn) [Test Compound 10, 1-{1-[4-(5-Methylaminocarbonyloxy-6-diethylaminohexyloxy)benzoyl]-4-piperidinyl}-3,4-dihydrocarbostyril] | 7.42 | –
CCOc1ccc(C(=O)N2CCC(N3C(=S)CCc4ccccc43)CC2)c(OC)c1 [Test Compound 11, 1-[1-(2-Methoxy-4-ethoxybenzoyl)-4-piperidinyl]-3,4-dihydrothiocarbostyril] | 6.14 | –
O=C(c1ccc(SCCCCCN2CCCC2)cc1)N1CCC(N2C(=O)CCc3ccccc32)CC1 [Test Compound 12, 1-[1-{4-[5-(1-Pyrrolidinyl)pentylthio]-benzoyl}-4-piperidinyl]-3,4-dihydrocarbostyril] | 7.47 | –
O=C(c1ccc(-c2ccccn2)cc1)N1CCC(N2C(=O)CCc3ccccc32)CC1 [Test Compound 13, 1-{1-[4-(2-Pyridyl)benzoyl}-4-piperidinyl}-3,4-dihydrocarbostyril] | 5.92 | –
O=C(c1ccc(-c2ncc[nH]2)cc1)N1CCC(N2C(=O)CCc3ccccc32)CC1 [Test Compound 14, 1-{1-[4-(2-Imidazolyl)benzoyl}-4-piperidinyl}-3,4-dihydrocarbostyril] | 5.85 | –
Nc1ccccc1Sc1nccn1-c1ccc(C(=O)N2CCC(N3C(=O)CCc4ccccc43)CC2)cc1 [Test Compound 15, 1-[1-{4-[2-(2-Aminophenylthio)-1-imidazolyl]-benzoyl}-4-piperidinyl]-3,4-dihydrocarbostyril] | 6.10 | –
C=CCSc1ccc(C(=O)N2CCC(N3C(=O)CCc4ccccc43)CC2)c(OC)c1 [Test Compound 16, 1-[1-(2-Methoxy-4-allylthiobenzoyl)-4-piperidinyl]-3,4-dihydrocarbostyril] | – | 6.96
O=C(c1ccc([S+]([O-])CCCCCN2CCCC2)cc1)N1CCC(N2C(=O)CCc3ccccc32)CC1 (stereo not drawn) [Test Compound 17, 1-[1-{4-[5-(1-Pyrrolidinyl)pentylsulfinyl)-benzoyl}-4-piperidinyl]-3,4-dihydrocarbostyril] | 5.52 | –
O=C(c1ccc(S(=O)(=O)CCCCCN2CCCC2)cc1)N1CCC(N2C(=O)CCc3ccccc32)CC1 [Test Compound 18, 1-[1-{4-[5-(1-Pyrrolidinyl)pentylsulfonyl]-benzoyl}-4-piperidinyl]-3,4-dihydrocarbostyril] | 5.72 | –
O=C(c1ccc(-c2nc3ccccc3[nH]2)cc1)N1CCC(N2C(=O)CCc3ccccc32)CC1 [Test Compound 19, 1-{1-[4-(2-Benzimidazolyl)benzoyl]-4-piperidinyl}-3,4-dihydrocarbostyril] | 5.68 | –
O=C(c1ccc(-n2ccnc2-c2ccccc2)cc1)N1CCC(N2C(=O)CCc3ccccc32)CC1 [Test Compound 20, 1-{1-[4-(2-Phenyl-1-imidazolyl)benzoyl]-4-piperidinyl}-3,4-dihydrocarbostyril] | 5.55 | –
COc1ccc(-c2nccn2-c2ccc(C(=O)N3CCC(N4C(=O)CCc5ccccc54)CC3)cc2)cc1 [Test Compound 21, 1-[1-{4-[2-(4-Methoxyphenyl)-1-imidazolyl]-benzoyl}-4-piperidinyl]-3,4-dihydrocarbostyril] | 5.57 | –

— patent publication US5300513A, “Carbostyril derivatives and pharmaceutical composition containing the same” (Otsuka Pharmaceutical Co., Ltd., priority 1990, dated 1994)
